Laboratory results as given in ChEMBL document CHEMBL5532655, “Discovery of (R)-4-(8-methoxy-2-methyl-1-(1-phenylethy)-1H-imidazo[4,5-c]quinnolin-7-yl)-3,5-dimethylisoxazole as a potent and selective BET inhibitor for treatment of acute myeloid leukemia (AML) guided by FEP calculation” (Eur J Med Chem, 2024).

Legend:
MV4-11 [1] = assay: Induction of apoptosis in human MV4-11 cells assessed as early apoptotic cells at 1.25 uM incubated for 24 hrs by annexin V-FITC/PI staining based flow cytometric analysis (reference value: 0%); type: functional
MV4-11 [2] = assay: Induction of apoptosis in human MV4-11 cells assessed as early apoptotic cells at 0.625 uM incubated for 24 hrs by annexin V-FITC/PI staining based flow cytometric analysis (reference value: 0%); type: functional
MV4-11 [3] = assay: Induction of apoptosis in human MV4-11 cells assessed as viable cells at 0.625 uM incubated for 24 hrs by annexin V-FITC/PI staining based flow cytometric analysis (reference value: 97%); type: functional
MV4-11 [4] = assay: Induction of apoptosis in human MV4-11 cells assessed as viable cells at 1.25 uM incubated for 24 hrs by annexin V-FITC/PI staining based flow cytometric analysis (reference value: 97%); type: functional
MV4-11 [5] = assay: Induction of apoptosis in human MV4-11 cells assessed as viable cells at 2.5 uM incubated for 24 hrs by annexin V-FITC/PI staining based flow cytometric analysis (reference value: 97%); type: functional
MV4-11 [6] = assay: Induction of apoptosis in human MV4-11 cells assessed as viable cells at 5 uM incubated for 24 hrs by annexin V-FITC/PI staining based flow cytometric analysis (reference value: 97%); type: functional
MV4-11 [7] = assay: Induction of apoptosis in human MV4-11 cells assessed as viable cells at 10 uM incubated for 24 hrs by annexin V-FITC/PI staining based flow cytometric analysis (reference value: 97%); type: functional
MV4-11 [8] = assay: Induction of apoptosis in human MV4-11 cells assessed as early apoptotic cells at 2.5 uM incubated for 24 hrs by annexin V-FITC/PI staining based flow cytometric analysis (reference value: 0%); type: functional
MV4-11 [9] = assay: Induction of apoptosis in human MV4-11 cells assessed as early apoptotic cells at 5 uM incubated for 24 hrs by annexin V-FITC/PI staining based flow cytometric analysis (reference value: 0%); type: functional
MV4-11 [10] = assay: Induction of apoptosis in human MV4-11 cells assessed as early apoptotic cells at 10 uM incubated for 24 hrs by annexin V-FITC/PI staining based flow cytometric analysis (reference value: 0%); type: functional
MV4-11 [11] = assay: Induction of apoptosis in human MV4-11 cells assessed as late apoptotic cells at 0.625 uM incubated for 24 hrs by annexin V-FITC/PI staining based flow cytometric analysis (reference value: 0.04 %); type: functional
MV4-11 [12] = assay: Induction of apoptosis in human MV4-11 cells assessed as late apoptotic cells at 1.25 uM incubated for 24 hrs by annexin V-FITC/PI staining based flow cytometric analysis (reference value: 0.04 %); type: functional
MV4-11 [13] = assay: Induction of apoptosis in human MV4-11 cells assessed as late apoptotic cells at 2.5 uM incubated for 24 hrs by annexin V-FITC/PI staining based flow cytometric analysis (reference value: 0.04 %); type: functional
MV4-11 [14] = assay: Induction of apoptosis in human MV4-11 cells assessed as late apoptotic cells at 5 uM incubated for 24 hrs by annexin V-FITC/PI staining based flow cytometric analysis (reference value: 0.04 %); type: functional
MV4-11 [15] = assay: Induction of apoptosis in human MV4-11 cells assessed as late apoptotic cells at 10 uM incubated for 24 hrs by annexin V-FITC/PI staining based flow cytometric analysis (reference value: 0.04 %); type: functional
MV4-11 [16] = assay: Induction of apoptosis in human MV4-11 cells assessed as necrotic cells at 0.625 uM incubated for 24 hrs by annexin V-FITC/PI staining based flow cytometric analysis (reference value: 2.35 %); type: functional
MV4-11 [17] = assay: Induction of apoptosis in human MV4-11 cells assessed as necrotic cells at 1.25 uM incubated for 24 hrs by annexin V-FITC/PI staining based flow cytometric analysis (reference value: 2.35 %); type: functional
MV4-11 [18] = assay: Induction of apoptosis in human MV4-11 cells assessed as necrotic cells at 2.5 uM incubated for 24 hrs by annexin V-FITC/PI staining based flow cytometric analysis (reference value: 2.35 %); type: functional
MV4-11 [19] = assay: Induction of apoptosis in human MV4-11 cells assessed as necrotic cells at 5 uM incubated for 24 hrs by annexin V-FITC/PI staining based flow cytometric analysis (reference value: 2.35 %); type: functional
MV4-11 [20] = assay: Induction of apoptosis in human MV4-11 cells assessed as necrotic cells at 10 uM incubated for 24 hrs by annexin V-FITC/PI staining based flow cytometric analysis (reference value: 2.35 %); type: functional
MV4-11 [21] = assay: Induction of cell cycle arrest in human MV4-11 cells assessed as accumulation of cells at G0/G1 phase at 0.3125 uM incubated for 24 hrs by propidium iodide staining flow cytometric analysis (reference value: 34.97 %); type: functional
MV4-11 [22] = assay: Induction of cell cycle arrest in human MV4-11 cells assessed as accumulation of cells at G0/G1 phase at 0.625 uM incubated for 24 hrs by propidium iodide staining flow cytometric analysis (reference value: 34.97 %); type: functional
MV4-11 [23] = assay: Induction of cell cycle arrest in human MV4-11 cells assessed as accumulation of cells at G0/G1 phase at 1.25 uM incubated for 24 hrs by propidium iodide staining flow cytometric analysis (reference value: 34.97 %); type: functional
MV4-11 [24] = assay: Induction of cell cycle arrest in human MV4-11 cells assessed as accumulation of cells at G0/G1 phase at 2.5 uM incubated for 24 hrs by propidium iodide staining flow cytometric analysis (reference value: 34.97 %); type: functional
MV4-11 [25] = assay: Induction of cell cycle arrest in human MV4-11 cells assessed as accumulation of cells at G0/G1 phase at 5 uM incubated for 24 hrs by propidium iodide staining flow cytometric analysis (reference value: 34.97 %); type: functional
MV4-11 [26] = assay: Induction of cell cycle arrest in human MV4-11 cells assessed as accumulation of cells at G2/M phase at 0.3125 uM incubated for 24 hrs by propidium iodide staining flow cytometric analysis (reference value: 51.43 %); type: functional
MV4-11 [27] = assay: Induction of cell cycle arrest in human MV4-11 cells assessed as accumulation of cells at G2/M phase at 0.625 uM incubated for 24 hrs by propidium iodide staining flow cytometric analysis (reference value: 51.43 %); type: functional
MV4-11 [28] = assay: Induction of cell cycle arrest in human MV4-11 cells assessed as accumulation of cells at G2/M phase at 1.25 uM incubated for 24 hrs by propidium iodide staining flow cytometric analysis (reference value: 51.43 %); type: functional
MV4-11 [29] = assay: Induction of cell cycle arrest in human MV4-11 cells assessed as accumulation of cells at G2/M phase at 2.5 uM incubated for 24 hrs by propidium iodide staining flow cytometric analysis (reference value: 51.43 %); type: functional
MV4-11 [30] = assay: Induction of cell cycle arrest in human MV4-11 cells assessed as accumulation of cells at G2/M phase at 5 uM incubated for 24 hrs by propidium iodide staining flow cytometric analysis (reference value: 51.43 %); type: functional
MV4-11 [31] = assay: Induction of cell cycle arrest in human MV4-11 cells assessed as accumulation of cells at S phase at 0.3125 uM incubated for 24 hrs by propidium iodide staining flow cytometric analysis (reference value: 13.08 %); type: functional
MV4-11 [32] = assay: Induction of cell cycle arrest in human MV4-11 cells assessed as accumulation of cells at S phase at 0.625 uM incubated for 24 hrs by propidium iodide staining flow cytometric analysis (reference value: 13.08 %); type: functional
MV4-11 [33] = assay: Induction of cell cycle arrest in human MV4-11 cells assessed as accumulation of cells at S phase at 1.25 uM incubated for 24 hrs by propidium iodide staining flow cytometric analysis (reference value: 13.08 %); type: functional
MV4-11 [34] = assay: Induction of cell cycle arrest in human MV4-11 cells assessed as accumulation of cells at S phase at 2.5 uM incubated for 24 hrs by propidium iodide staining flow cytometric analysis (reference value: 13.08 %); type: functional
MV4-11 [35] = assay: Induction of cell cycle arrest in human MV4-11 cells assessed as accumulation of cells at S phase at 5 uM incubated for 24 hrs by propidium iodide staining flow cytometric analysis (reference value: 13.08 %); type: functional
MV4-11 [36] = assay: Antitumor activity against human MV4-11 cells xenografted in BALB/c mouse assessed as tumor growth inhibition relative to control; type: functional
Homo sapiens [37] = organism: Homo sapiens; conditions: time 30.0 min
Homo sapiens [38] = organism: Homo sapiens; conditions: time 30.0 min; remark: listed apart in the source
Homo sapiens [39] = organism: Homo sapiens; conditions: time 30.0 min; remark: listed apart in the source
MV4-11 [40] = assay: cells; conditions: Homo sapiens, MV4-11, 48 h
Description: Antiproliferative activity against human MV4-11 cells assessed as inhibition of cell growth incubated for 48 hrs by MTT assay

MOLM-13 = assay: cells; conditions: Homo sapiens, MOLM-13, 48 h
Description: Antiproliferative activity against human MOLM-13 cells assessed as inhibition of cell growth incubated for 48 hrs by MTT assay

Jurkat = assay: cells; conditions: Homo sapiens, 48 h
Description: Antiproliferative activity against human Jurkat cells assessed as inhibition of cell growth incubated for 48 hrs by MTT assay

MM1.S = assay: cells; conditions: Homo sapiens, 48 h
Description: Antiproliferative activity against human MM1.S cells assessed as inhibition of cell growth incubated for 48 hrs by MTT assay

In the case of `Cc1sc2c(c1C)C(c1ccc(Cl)cc1)=N[C@@H](CC(=O)OC(C)(C)C)c1nnc(C)n1-2`, the Activity (MV4-11 [1]) is reported as 6.52%, the Activity (MV4-11 [2]) is reported as 6.12% and the Activity (MV4-11 [3]) is reported as 80.59%. It also gave an Activity (MV4-11 [4]) of 80.78%, an Activity (MV4-11 [5]) of 88.78% and an Activity (MV4-11 [6]) of 68.49%. For the same molecule, the Activity (MV4-11 [7]) was 67.33%, the Activity (MV4-11 [8]) was 7.22% and the Activity (MV4-11 [9]) was 6.72%. It also gave an Activity (MV4-11 [10]) of 8.62%, an Activity (MV4-11 [11]) of 4.15% and an Activity (MV4-11 [12]) of 3.38%. It also gave an Activity (MV4-11 [13]) of 4.03%, an Activity (MV4-11 [14]) of 4.68% and an Activity (MV4-11 [15]) of 5.04%. The Activity (MV4-11 [16]) was 0.03%, the Activity (MV4-11 [17]) was 0.03% and the Activity (MV4-11 [18]) was 0%. For the same molecule, the Activity (MV4-11 [19]) was 0%, the Activity (MV4-11 [20]) was 0.06% and the Activity (MV4-11 [21]) was 46.96%. The Activity (MV4-11 [22]) was 46.96%, the Activity (MV4-11 [23]) was 62.73% and the Activity (MV4-11 [24]) was 65.43%. For the same molecule, the Activity (MV4-11 [25]) was 64.98%, the Activity (MV4-11 [26]) was 11.65% and the Activity (MV4-11 [27]) was 11.65%. It also gave an Activity (MV4-11 [28]) of 18.1%, an Activity (MV4-11 [29]) of 11% and an Activity (MV4-11 [30]) of 11.71%. It also gave an Activity (MV4-11 [31]) of 40.75%, an Activity (MV4-11 [32]) of 40.75% and an Activity (MV4-11 [33]) of 19.09%. The Activity (MV4-11 [34]) was 23.24%, the Activity (MV4-11 [35]) was 22.85% and the TGI (MV4-11 [36]) was 52.82%. For the same molecule, the ΔTm (Homo sapiens [37]) was 0 °C, the ΔTm (Homo sapiens [38]) was 0 °C and the ΔTm (Homo sapiens [39]) was 0 °C. It also gave an IC50 (MV4-11 [40]) of 1.3 µM, an IC50 (MOLM-13) of 1.73 µM and an IC50 (Jurkat) of 16.3 µM. It also gave an IC50 (MM1.S) of 2.84 µM.
